According to BindingDB's records for doi:10.1016/j.ejmech.2023.115129 (n/a, 2023):

Biological target: Replicase polyprotein 1ab (Severe acute respiratory syndrome coronavirus 2, UniProt P0DTD1)
Experiment: Inhibition of full-length recombinant SARS-CoV-2 3CL protease expressed in Escherichia coli BL21 (DE3) cells using fluorogenic MCA-AVLQSGFR-Lys (Dnp)-Lys-NH2 substrate preincubated for 10 mins followed by substrate addition measured for 3.5 mins by FRET assay

Structure (SMILES): C/N=c1\nc(-c2ccc(OC)c(OC)c2)n(-c2ccc(F)cc2)s1
- IC50: 252 nM
